Test results as given in patent US8318801B2, “Cinnamic compounds and derivatives therefrom for the inhibition of histone deacetylase” (Naturewise Biotech & Medicals Corporation, priority 2009, dated 2012).
Entries after “also recorded” stand apart in the source; their conditions may differ.

Columns and labels:
[1] = tested on: SMN2 protein in fibroblast cells derived from SMA patients; conditions: after 64 hours of treatment; cited from earlier work
Human glioma Hs683 cells [2] = test: Cell cycle analysis by flow cytometry (propidium iodide); format: cell-based; conditions: Hs683 cells, 1.0, 2.0, 4.0 μg/mL, 72 hrs (FIG. 6(e))
Experimental: Human lung cancer A549 cells, Human glioma Hs683 cells and Human glioblastoma 05-MG cells were seeded 1×10^6 cells in a 100-mm dish. After 24 hours of incubation in DMEM+10% BSA, Human lung cancer A549 cells were treated with NBM-HB-OS01 (2.5, 5.0, 7.5, 10.0 μg/mL) for 24 hours and were treated with NBM-C-BCX-OS01 (2.5, 5.0, 7.5 μg/mL) and NBM-C-BMX-OS01 (2.5, 5, 7.5 μg/mL) for 72 hours. Human glioblastoma 05-MG cells were treated with NBM-C-BCX-OS01 (1.0, 2.0, 4.0 μg/mL) and NBM-C-BMX-OS01 (1.0, 2.0, 4.0 μg/mL) for 72 hours. Human glioma Hs683 cells were treated with NBM-C-BCX-OS01 (1.0, 2.0, 4.0 μg/mL). For cell cycle analysis, cells were fixed in 80% ethanol for 1 hour (or overnight) at −20° C. and then incubated with 2 μg/mL RNase A for 30 minutes at 37° C. Cells were stained with propidium iodide ([…] PI) in PBS and analyzed using a Becton Dickinson flow cytometer, BD FACScan and CellQuest acquisition and analysis programs. […] Human glioma Hs683 cells were treated with NBM-C-BCX-OS01 (1.0, 2.0, 4.0 μg/mL) for 72 hours.

Human glioma Hs683 cells [3] = test: Inhibition of cancer cell growth; format: cell-based; conditions: Hs683 cells, 1.25, 2.5, 5.0 μg/mL, 72 hrs (FIG. 5(d))
Experimental: Their results were counted by a trypan blue exclusion assay (see FIG. 8(e)).
(§1) Five cancer cell lines, Rat C6 giloma cells, Human breast cancer MCF-7 cells, Human glioma Hs683 cells, Human glioblastoma 05-MG cells, and Human lung cancer A549 cells, were cultured in Dulbecco's modified Eagle's medium (DMEM; Gibco) containing 10% fetal bovine serum (FBS) and 1% penicillin/streptomycin, and were kept at 37° C. in a humidified atmosphere of 95% air and 5% CO2. Human breast cancer. MDA-MB-231 cells were cultured in L-15 medium (Gibco) containing 10% fetal bovine serum (FBS), 1% penicillin/streptomycin, and 2 mM glutamine, and were maintained at 37° C. in a humidified atmosphere of 95% air and 0% CO2. For these experiments, the cells were seeded in 6-well plates or a 60-mm dish. After 24 hours, the cells were treated with different concentrations of the various compounds. […] Human glioblastoma 05-MG cells were treated with NBM-C-BCX-OS01 (1.0, 2.0, 4.0 μg/mL) and NBM-C-BMX-OS01 (1.0, 2.0, 4.0 μg/mL) for 72 hours (see FIG. 5(e)). […] The results were counted by a trypan blue exclusion assay (see FIG. 6(b)).

[4] = tested on: human breast cancer MDA-MB-231 cells; test: Inhibition of cancer cell growth and change of morphology; format: cell-based; conditions: MDA-MB-231 cells
Experimental: Their results were counted by a trypan blue exclusion assay (see FIG. 9(f)).
as §1

[5] = tested on: acetyl-Histone H3, acetyl-Histone H4, acetyl-tubulin, p21, CTPS, Gelsolin, Hsp90, acetyl-Hsp90 in Human glioma Hs683 cells; test: Immunoblotting of histones and HDAC associated proteins; format: cell-based; conditions: Hs683 cells, 1.0, 2.0, 4.0 μg/mL
Experimental: Human glioma Hs683 cells were seeded at 5×10^5 cells in a 60-mm dish or 1×10^6 cells in a 100-mm dish. After 24 hours, Human glioma Hs683 cells were treated with different doses of NBM-C-BCX-OS01, NBM-C-BMX-OS01 (1.0, 2.0, 4.0 μg/mL), and vorinostat (SAHA, 5 μM) for 72 hours. Lysates of Hs683 cells were prepared for the immunoblotting of acetyl-Histone H3 (Cell Signaling Technology, Inc.), acetyl-Histone H4 (Upstate), acetyl-tubulin (Sigma Chemical Co.), p21 (BD Pharmingen Technology, Inc.), CTPS (ABNOVA TAIWAN Corporation), Gelsolin (Sigma Chemical Co.), Hsp90 (Cell Signaling Technology, Inc.), acetyl-Hsp90 (ROCKLAND, Inc.) and actin (Sigma Chemical Co.). Proteins were detected by chemiluminescence (ECL, Amersham). […] SAHA was used as a positive control and β-actin as an internal control (see FIG. 7(b)).

[6] = tested on: Human glioblastoma 05-MG cells; test: Inhibition of cancer cell growth; format: cell-based; conditions: 05-MG cells, 1.0, 2.0, 4.0 μg/mL, 72 hrs (FIG. 5(e))
Experimental: as §1

Rat C6 glioma cells = test: Inhibition of cancer cell growth and change of morphology; format: cell-based; conditions: Rat C6 glioma cells
Experimental: (§2) Three cancer cell lines, Rat C6 giloma cells, Human breast cancer MCF-7 cells, and Human lung cancer A549 cells, were cultured in Dulbecco's modified Eagle's medium (DMEM; Gibco) containing 10% fetal bovine serum (FBS) and 1% penicillin/streptomycin. All three cell lines were maintained at 37° C. in a humidified atmosphere of 95% air and 5% CO2. For the experiments, the cells were seeded in 6-well plates. After 24 hours, the cells were treated with different concentrations of the various compounds.
as §1

[7] = tested on: Human lung cancer A549 cells; test: Inhibition of cancer cell growth; format: cell-based; conditions: 72 hrs, NBM-C-BX-OS01 7.5, others 2.5, 5.0, 7.5 μg/mL (FIG. 5(b))
Experimental: as §2, §1

[8] = tested on: cyclin D1 in MCF-7 breast cancer cells; conditions: cited from earlier work
[9] = tested on: transgenic mouse model of spinal and bulbar muscular atrophy; conditions: cited from earlier work

In the case of `CN(C)c1ccc(C(=O)NCCCCCCC(=O)NO)cc1` [M344], the “up-regulation of SMN2 protein expression” value [1] is given as “up to 7 fold”.

With `COc1ccc(/C=C\C(=O)NO)c(OCc2ccc(Cl)cc2)c1CC=C(C)C` [NBM-C-BCX-OS01, (Z)-2-(4-Chlorobenzoxy)-3-prenyl-4-methoxy-N-hydroxycinamide] the “growth arrest in cell cycle analysis” value (Human glioma Hs683 cells [2]) was “arrested the growth; also recorded: could arrest the growth”, the cell growth inhibition (Human glioma Hs683 cells [3]) was “Cell growth inhibition was observed” and the “change of cell morphology” value ([4]; 72 hours (FIG. 6(a))) was “changed the morphology of the cells”. The “inhibition of cell growth” value ([4]; various concentrations, 72 hrs (FIG. 6(a))) was “inhibition of the cell growth of human breast cancer MDA-MB-231 cells was observed; also recorded: inhibited the growth”, the CTPS protein level ([5]; 72 hrs (FIG. 7(a))) was “decreased in a dose-dependent manner” and the Hsp90 protein level ([5]; 72 hrs (FIG. 7(a))) was “decreased in a dose-dependent manner”. The “induction (increase) of acetylated Hsp90 protein” value ([5]; 72 hrs (FIG. 7(a))) was “detected in a dose-dependent manner; also recorded: observed in a dose-dependent manner”, the “induction (increase) of gelsolin protein” value ([5]; 72 hrs (FIG. 7(a))) was “detected in a dose-dependent manner; also recorded: observed in a dose-dependent manner” and the “expression of acetylated Histone H3” value ([5]; 72 hrs (FIG. 7(b))) was “significantly increased in a dose-dependent manner; also recorded: induced in a dose-dependent manner”. The “expression of acetylated Histone H4” value ([5]; 72 hrs (FIG. 7(b))) was “significantly increased in a dose-dependent manner; also recorded: induced in a dose-dependent manner”, the “expression of acetylated tubulin” value ([5]; 72 hrs (FIG. 7(b))) was “significantly increased in a dose-dependent manner; also recorded: induced in a dose-dependent manner” and the “expression of p21” value ([5]; 72 hrs (FIG. 7(b))) was “significantly increased in a dose-dependent manner; also recorded: induced in a dose-dependent manner”. The cell growth inhibition [6] was “Cell growth inhibition was observed”, the “inhibition of cell growth” value (Rat C6 glioma cells; 24 hrs, NBM-C-BA-OS01 5 μg/mL, others 2.5, 5.0 μg/mL (FIG. 5(a))) was “inhibited the cell growth” and the “inhibition of cell growth, similar to dose-dependent A549 result” value (Rat C6 glioma cells; various concentrations, 24 hrs (FIG. 5(c))) was “the results were similar”. The cell growth inhibition [7] was “induced A549 cells growth inhibition in a dose-dependent manner; also recorded: induced A549 cell growth inhibition in dose-dependent amounts”.

For `CC(/C=C/C(=O)NO)=C\[C@@H](C)C(=O)c1ccc(N(C)C)cc1` [Trichostatin A], the “ubiquitin-dependent cyclin D1 degradation” value [8] is listed as “induce ubiquitin-dependent cyclin D1 degradation”.

In the case of `CCCC(=O)[O-].[Na+]` [sodium butyrate], the “effect on phenotypic expression” value [9] is listed as “ameliorates phenotypic expression”.
